Measured values from patent US10670605B2, “Cysteine reactive probes and uses thereof” (The Scripps Research Institute, priority 2015, dated 2020).

Assays:
Experiment in all cases: Competitive isoTOP-ABPP, cell lysates
Format in all cases: binding
ACAT1 C196 (P24752) = biological target: T1, ACAT1 C196 (P24752) (Homo sapiens, UniProt P24752)
T1 sequence (P24752 34-427): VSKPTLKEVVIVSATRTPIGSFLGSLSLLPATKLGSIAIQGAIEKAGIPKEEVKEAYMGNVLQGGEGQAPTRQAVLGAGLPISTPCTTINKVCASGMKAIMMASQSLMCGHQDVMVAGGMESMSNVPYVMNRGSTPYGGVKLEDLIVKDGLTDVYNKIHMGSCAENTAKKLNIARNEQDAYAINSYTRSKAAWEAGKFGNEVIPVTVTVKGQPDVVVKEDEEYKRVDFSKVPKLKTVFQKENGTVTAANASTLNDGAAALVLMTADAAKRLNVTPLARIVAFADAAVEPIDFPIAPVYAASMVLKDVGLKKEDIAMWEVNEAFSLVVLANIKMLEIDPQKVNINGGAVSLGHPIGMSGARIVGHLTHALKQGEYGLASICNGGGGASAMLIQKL

ACAT1 C413 (P24752) = biological target: T2, ACAT1 C413 (P24752) (Homo sapiens, UniProt P24752)
T2 sequence (P24752 34-427): T1 sequence (P24752 34-427)

SAMHD1 C522 (Q9Y3Z3) = SAMHD1 C522 (Q9Y3Z3) (Homo sapiens, UniProt Q9Y3Z3)
DCUN1D1 C115 (Q96GG9) = DCUN1D1 C115 (Q96GG9) (Homo sapiens, UniProt Q96GG9); details: for isoTOP-ABPP ratio (reactivity profile), Q96GG9_C115: 500 μm in-vitro ramos
PDIA6 C55 (Q15084) = biological target: T3, PDIA6 C55 (Q15084) (Homo sapiens, UniProt Q15084)
T3 sequence (Q15084 20-440): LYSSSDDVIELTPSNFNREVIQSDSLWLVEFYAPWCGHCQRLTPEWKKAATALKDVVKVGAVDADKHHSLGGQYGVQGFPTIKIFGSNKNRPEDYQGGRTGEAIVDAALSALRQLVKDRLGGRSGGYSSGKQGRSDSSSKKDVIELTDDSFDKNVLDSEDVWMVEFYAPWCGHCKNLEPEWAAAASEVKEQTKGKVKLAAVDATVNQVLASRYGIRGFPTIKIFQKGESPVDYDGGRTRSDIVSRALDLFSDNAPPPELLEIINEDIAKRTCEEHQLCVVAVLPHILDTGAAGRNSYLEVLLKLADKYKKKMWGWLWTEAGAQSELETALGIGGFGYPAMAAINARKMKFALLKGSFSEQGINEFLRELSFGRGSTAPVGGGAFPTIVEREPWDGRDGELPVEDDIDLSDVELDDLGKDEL

SMARCC2 C145 (Q8TAQ2) = SMARCC2 C145 (Q8TAQ2) (Homo sapiens, UniProt Q8TAQ2)
AIP C122 (O00170) = biological target: T4, AIP C122 (O00170) (Homo sapiens, UniProt O00170)
T4 sequence (O00170 1-330): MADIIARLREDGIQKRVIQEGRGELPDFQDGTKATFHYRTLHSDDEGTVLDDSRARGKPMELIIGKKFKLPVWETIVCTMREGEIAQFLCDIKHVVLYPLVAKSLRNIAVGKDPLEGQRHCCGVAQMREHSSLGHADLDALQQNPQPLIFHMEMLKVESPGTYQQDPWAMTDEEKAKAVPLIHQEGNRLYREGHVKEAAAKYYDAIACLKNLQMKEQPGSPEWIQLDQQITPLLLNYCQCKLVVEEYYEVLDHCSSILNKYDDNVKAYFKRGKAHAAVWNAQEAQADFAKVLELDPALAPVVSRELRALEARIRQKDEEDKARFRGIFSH

UBE2L3 C86 (P68036) = UBE2L3 C86 (P68036) (Homo sapiens, UniProt P68036)
ACAT1 C126 (P24752) = biological target: T5, ACAT1 C126 (P24752) (Homo sapiens, UniProt P24752)
T5 sequence (P24752 34-427): T1 sequence (P24752 34-427)

STAT3 C259 (P40763) = STAT3 C259 (P40763) (Homo sapiens, UniProt P40763)

| isoTOP-ABPP ratio (reactivity profile), P24752_C196 (ACAT1 C196 (P24752); 500 μm in-vitro ramos) | isoTOP-ABPP ratio (reactivity profile), P24752_C413 (ACAT1 C413 (P24752); 500 μm in-vitro ramos) | isoTOP-ABPP ratio (reactivity profile), Q9Y3Z3_C522 (SAMHD1 C522 (Q9Y3Z3); 500 μm in-vitro ramos) | isoTOP-ABPP ratio (reactivity profile), Q96GG9_C115 (DCUN1D1 C115 (Q96GG9)) | isoTOP-ABPP ratio (reactivity profile), Q15084_C55 (PDIA6 C55 (Q15084); 500 μm in-vitro ramos) | isoTOP-ABPP ratio (reactivity profile), Q8TAQ2_C145 (SMARCC2 C145 (Q8TAQ2); 500 μm in-vitro ramos) | isoTOP-ABPP ratio (reactivity profile), O00170_C122 (AIP C122 (O00170); 500 μm in-vitro ramos) | isoTOP-ABPP ratio (reactivity profile), P24752_C126 (ACAT1 C126 (P24752); 500 μm in-vitro ramos) | SMILES | further results |
| --- | --- | --- | --- | --- | --- | --- | --- | --- | --- |
| 1.0 | 0.9 | 0.9 | 0.9 | 0.9 | 0.9 | 0.9 | 0.9 | O=C(/C=C/c1ccccc1)Nc1cc(C(F)(F)F)cc(C(F)(F)F)c1 [compound 26] | isoTOP-ABPP ratio (reactivity profile), P68036_C86 (UBE2L3 C86 (P68036); 500 μm in-vitro ramos): 0.7 |
| 1.1 | 1.4 |  |  | 1.5 | 1.2 | 1.2 | 1.6 | COc1ccccc1OCCNC(=O)CCl [compound 28] | isoTOP-ABPP ratio (reactivity profile), P24752_C196 (ACAT1 C196 (P24752); 500 μm in-vitro ramos_231): 1.0; isoTOP-ABPP ratio (reactivity profile), P24752_C413 (ACAT1 C413 (P24752); 500 μm in-vitro ramos_231): 1.2; isoTOP-ABPP ratio (reactivity profile), Q9Y3Z3_C522 (SAMHD1 C522 (Q9Y3Z3); 500 μm in-vitro ramos_231): 1.0; isoTOP-ABPP ratio (reactivity profile), P40763_C259 (STAT3 C259 (P40763); 500 μm in-vitro ramos): 1.1; isoTOP-ABPP ratio (reactivity profile), P40763_C259 (STAT3 C259 (P40763); 500 μm in-vitro ramos_231): 1.0; isoTOP-ABPP ratio (reactivity profile), Q15084_C55 (PDIA6 C55 (Q15084); 500 μm in-vitro ramos_231): 1.1; isoTOP-ABPP ratio (reactivity profile), Q8TAQ2_C145 (SMARCC2 C145 (Q8TAQ2); 500 μm in-vitro ramos_231): 1.1; isoTOP-ABPP ratio (reactivity profile), O00170_C122 (AIP C122 (O00170); 500 μm in-vitro ramos_231): 0.9; isoTOP-ABPP ratio (reactivity profile), P68036_C86 (UBE2L3 C86 (P68036); 500 μm in-vitro ramos_231): 1.4; isoTOP-ABPP ratio (reactivity profile), P24752_C126 (ACAT1 C126 (P24752); 500 μm in-vitro ramos_231): 1.7 |
| 0.8 | 1.1 | 0.7 | 0.7 | 2.2 | 1.1 | 1.1 | 1.1 | CCN(CC)c1ccc(S(N)(=O)=O)cc1NC(=O)CCl [compound 30] | isoTOP-ABPP reactivity ratio, P24752_C196 (ACAT1 C196 (P24752); 500 μm, in-vitro_ramos): 1.1; isoTOP-ABPP reactivity ratio, P24752_C413 (ACAT1 C413 (P24752); 500 μm, in-vitro_ramos): 1.9; isoTOP-ABPP reactivity ratio, Q96GG9_C115 (DCUN1D1 C115 (Q96GG9); 500 μm, in-vitro_ramos): 1.1; isoTOP-ABPP reactivity ratio, Q8TAQ2_C145 (SMARCC2 C145 (Q8TAQ2); 500 μm, in-vitro_ramos): 1.5; isoTOP-ABPP reactivity ratio, O00170_C122 (AIP C122 (O00170); 500 μm, in-vitro_ramos): 2.0; isoTOP-ABPP reactivity ratio, P68036_C86 (UBE2L3 C86 (P68036); 500 μm, in-vitro_ramos): 1.5; isoTOP-ABPP reactivity ratio, P24752_C126 (ACAT1 C126 (P24752); 500 μm, in-vitro_ramos): 1.6 |
